From patent EP4656642A1, “ESTROGEN RECEPTOR PROTEOLYSIS TARGETING CHIMERA COMPOUND AND USE THEREOF” (GAN & LEE PHARM CO., LTD, priority 2023, dated 2024)

Columns and labels:
Format in all cases: cell-based
ERα [1] = molecular target: T1, ERα (Homo sapiens, UniProt P03372); experiment: Degradation of ERα in MCF-7 cells (immunoblotting, 4 h)
T1 sequence (P03372 1-595): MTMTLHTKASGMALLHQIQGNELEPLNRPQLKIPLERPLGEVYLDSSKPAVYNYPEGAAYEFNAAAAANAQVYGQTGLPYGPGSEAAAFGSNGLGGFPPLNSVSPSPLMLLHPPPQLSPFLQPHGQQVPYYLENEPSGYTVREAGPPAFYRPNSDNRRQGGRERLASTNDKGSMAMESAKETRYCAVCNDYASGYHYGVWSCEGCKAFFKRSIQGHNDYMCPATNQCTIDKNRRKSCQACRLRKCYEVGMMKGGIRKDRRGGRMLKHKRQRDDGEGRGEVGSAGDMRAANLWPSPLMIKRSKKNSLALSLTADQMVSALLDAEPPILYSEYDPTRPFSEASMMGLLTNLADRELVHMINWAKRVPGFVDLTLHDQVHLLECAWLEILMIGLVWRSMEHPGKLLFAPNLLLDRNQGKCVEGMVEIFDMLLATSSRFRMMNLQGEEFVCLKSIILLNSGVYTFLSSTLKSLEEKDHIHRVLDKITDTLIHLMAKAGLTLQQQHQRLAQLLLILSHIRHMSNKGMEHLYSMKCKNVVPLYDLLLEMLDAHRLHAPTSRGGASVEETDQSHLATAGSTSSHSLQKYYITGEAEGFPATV
Procedure, shortened: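 Degradation rate reflects ERα band intensity, corrected to an internal reference protein, relative to control. Values come from Western blotting of lysates from MCF-7 cells exposed 4 h at 37°C to compounds at final concentrations of 0.15-1000nM.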

ERα [2] = molecular target: T1, ERα; experiment: Degradation of ERα in T-47D cells (immunoblotting, 4 h); set-up: host or cells: T-47D
Procedure, shortened: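 ERα protein levels were assessed by immunoblot of RIPA lysates (with protease inhibitor) after 4 h exposure at 37°C. Compound was added in DMSO to T-47D cells at final concentrations of 0.15-1000 nM.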

T-47D cells = experiment: Inhibition of cell proliferation in T-47D cells (CCK-8, 6 days); settings: 6 days of treatment
Procedure, shortened: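 Viability read-out was CCK-8 after 6 days of compound treatment (37 °C, 5% CO2) across graded concentrations. Cells were T-47D seeded at 3,000 per well in 1640 medium plus 10% FBS. IC50 was calculated against proliferation.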

MCF-7 cells [3] = experiment: Inhibition of cell proliferation of MCF-7 cells (CCK-8, 6 days); settings: 6 days of treatment, Table 4
From the text: Test Example 3 Inhibitory effect of the PROTAC compounds provided in the present disclosure on cell proliferation of MCF-7 cells
The complete medium required for MCF-7 cells (source ATCC) was DMEM (gibco, Product number :11995-065) basal medium containing 10% fetal bovine serum. MCF-7 cells were inoculated in 96-well plates at a density of 800 cells/well, and different concentrations of the PROTAC compounds 1-55 provided in the examples of the present disclosure and a positive control sample ARV-471 (source: Innochem) were prepared to treat the cells, and the cells were treated at 37°C in a cell culture incubator with 5% CO2 for 6 days. Cell viability was detected using a CCK-8 kit (Beyotime, Product number: C0040) according to the manufacturer's instructions. The IC50 values of each PROTAC compound after 6 days of treatment were calculated using GraphPadPrism software based on the inhibition rate, and the results are shown in Table 4. Table 4 IC50 values for inhibition of the proliferation of MCF-7 cells by the PROTAC compounds of the present disclosure and positive control sample

MCF-7 cells [4] = experiment: Inhibition of cell proliferation of MCF-7 cells (CCK-8, 9 days)
Procedure, shortened: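 Read-out was CCK-8 viability after 9-day continuous exposure (37°C, 5% CO2) of MCF-7 cells plated at 800/well in 10% FBS DMEM across several compound concentrations. Values are proliferation IC50s.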

[5] = treated for 9 days, CCK-8 kit (Table 6)

| SMILES | Degradation rate (%) of ERα in MCF-7 cells (ERα [1]; 10nM compound) | Degradation rate (%) of ERα in T-47D cells (ERα [2]; 10nM compound) | IC50 (T-47D cells; Table 2) | IC50 (T-47D cells; Table 3) | IC50 (MCF-7 cells [3]) | IC50 (MCF-7 cells [4]; [5]) | Degradation rate (%) of ERα in MCF-7 cells (ERα [1]; 1nM compound) | Degradation rate (%) of ERα in T-47D cells (ERα [2]; 1nM compound) | IC50 (T-47D cells; Homo sapiens, T47D, 144 h, Table 2) | IC50 (MCF-7 cells [3]; Homo sapiens, MCF7, 144 h) | IC50 (MCF-7 cells [4]; Homo sapiens, MCF7, 216 h, 9 days of treatment, CCK-8, Table 5) |
| --- | --- | --- | --- | --- | --- | --- | --- | --- | --- | --- | --- |
| O=C1CCC(N2C(=O)c3cc4c(cc3C2=O)C2(CCN(CC3CCN(c5ccc(C6c7ccc(O)cc7CCC6c6ccccc6)cc5)CC3)CC2)CO4)C(=O)N1 (stereo not shown) [A8] | -42% | -22% | 104 nM | 104 nM | 19000 nM | 19 nM |  |  |  |  |  |
| O=C1CCC(N2C(=O)c3cc4c(cc3C2=O)OC2(CC4)CCN(C3CCC4(CC3)CCN(c3ccc(C5c6ccc(O)cc6CCC5c5ccccc5)cc3)CC4)CC2)C(=O)N1 (stereo not shown) [A12] | 4% | -1% | 127 nM | 127 nM | 4600 nM | 4.6 nM |  |  |  |  |  |
| O=C1CCC(N2Cc3cc4c(cc3C2=O)OCC2(CCN(C3CCC5(CC3)CCN(c3ccc(C6c7ccc(O)cc7CCC6c6ccccc6)cc3)CC5)CC2)O4)C(=O)N1 (stereo not shown) [A26] | 13% | 40% | 21 nM |  | 3780 nM |  |  |  |  |  |  |
| O=C1CCC(N2Cc3cc4c(cc3C2=O)OCC2(CCN(C3CCC5(CC3)CN(c3ccc(C6c7ccc(O)cc7CCC6c6ccccc6)cc3)C5)CC2)O4)C(=O)N1 (stereo not shown) [A27] | 4% | -15% | 15 nM |  | 4360 nM |  |  |  |  |  |  |
| O=C1CCC(N2Cc3cc4c(cc3C2=O)CCC2(CCN(C3C[C@@H]5CN(c6ccc(C7c8ccc(O)cc8CCC7c7ccccc7)cc6)C[C@@H]5C3)CC2)O4)C(=O)N1 (stereo partly shown) [A29] | 8% | -2% | 215 nM |  | 5480 nM |  |  |  |  |  |  |
| O=C1CCC(N2Cc3cc4c(cc3C2=O)OC2(CC4)CN(C3CCC4(CC3)CCN(c3ccc(C5c6ccc(O)cc6CCC5c5ccccc5)cc3)CC4)C2)C(=O)N1 (stereo not shown) [A30] | 23% | 46% | 11.8 nM |  | 30200 nM |  |  |  |  |  |  |
| O=C1CC[C@H](N2Cc3cc(N4CCN(CC5CCN(c6ccc([C@@H]7c8ccc(O)cc8CC[C@@H]7c7ccccc7)cc6)CC5)CC4)ccc3C2=O)C(=O)N1 [ARV-471, reference compound] | 76% | 85% |  |  |  |  | 38% | 61% | 1.7 nM | 17900 nM | 70 nM |
| O=C1CCC(N2Cc3cc4c(cc3C2=O)OC2(CC4)CCN(CC3CCN(c4ccc(C5c6ccc(O)cc6CCC5c5ccccc5)cc4)C3)CC2)C(=O)N1 (stereo not shown) [B2] | -26% | -92% | 229 nM |  | 10200 nM |  |  |  |  |  |  |
| O=C1CCC(N2Cc3cc4c(cc3C2=O)CCC2(CCN(CC3CCN(c5ccc(C6c7ccc(O)cc7CCC6c6ccccc6)cc5)C3)CC2)O4)C(=O)N1 (stereo not shown) [B4] | -34% | -9% | 56.9 nM |  | 10000 nM |  |  |  |  |  |  |
